What all share (assay type): physicochemical
Data set [1] is described as follows: Residual solvent level (ethyl acetate) by gas chromatography. Conditions: for Residual solvent level: anhydrate before, X-hydrate after conditioning. The source says: The residual solvent level described above can be determined by a known method such as gas chromatography. Gas chromatography is described in detail at B98-B114 of the Practical Guide of the 14th revision of Pharmacopoeia of Japan (published by Hirokawa Publishing Co., 2001) or the like. The measurement error by gas chromatography is normally within about ±1%.
The following examples further illustrate the present invention without, however, limiting the invention thereto. In the following examples, NMR spectra were measured by using a nuclear magnetic resonance spectrometer JNM-ECP500SS (made by JEOL) and only characteristic peaks were shown. Powder X-ray diffraction spectra were measured by using a powder X-ray diffractometer RINT-1100 (made by Rigaku). Residual solvent levels were measured by using a gas chromatograph GC-17A (made by Shimadzu) within an error of about ±1%. The staring material Dihydroxy compound described below (compound 1) can be prepared according to the process described in JPA 1997-100241 or modifications thereof.
Crystal form D anhydrate prepared according to Example 2 and Crystal form D X-hydrate prepared by conditioning said anhydrate according to Example 3 (1) or (2) using an air-circulating dryer (made by Nippon Kansoki), a vibro-fluidized bed dryer VUA-10DJ (made by Chuo Kakohki) or a fluidized bed granulator New Marumerizer NQ-160 (made by Fuji Paudal) were assayed for their residual solvent levels (ethyl acetate) by gas chromatography. Before and after conditioning, the crystal form was confirmed by powder X-ray diffraction spectra to have been transferred from Crystal form D anhydrate into Crystal form D X-hydrate.

The nature of data set [2]: Accelerated testing with oxygen at 40° C. for 2 weeks and 1 month, degradants by HPLC. Conditions: for Percent Degradants: Oxygen replacement, X-hydrate 75% RH. The method, then:
(§1) The resulting samples were tested for purity by HPLC, and the peak area of each sample was measured by automatic analysis to determine the product percentage by the area percentage method according to the equation below. The HPLC column used was YMC ODS AM303 (4.6×250 mm) with a mobile phase consisting of a solution of acetonitrile: water=1:1 containing PICB-8 (Low UV) reagent, and a UV spectrometer (260 nm) and a PDA (200-400 nm) were used as detectors on 25 μL of each sample solution prepared by dissolving about 20 mg of each sample in a solution of acetonitrile:water=1:1 to a volume of exactly 25 mL.
(§2) Degradants percentage (%)=(degradants peak area×100)/(total of peak areas excluding peaks derived from fumaric acid and control solution)
In the same manner as described in (1) above, Crystal form D was stored and dried under reduced pressure in a desiccator containing silica gel. After drying under reduced pressure, the air in the desiccator was replaced with high-purity oxygen conditioned at a relative humidity of 0% RH to perform accelerated testing of Crystal form D anhydrate at 40° C. for 2 weeks and for 1 month. Similarly, Crystal form D was stored in a desiccator conditioned at a relative humidity of about 75% RH by an aqueous saturated sodium chloride solution and the air in the desiccator was replaced with high-purity oxygen conditioned at a relative humidity of 75% RH to perform accelerated testing of Crystal form D X-hydrate at 40° C. for 2 weeks and for 1 month. The resulting samples were analyzed as described in (1) above. Before and after accelerated testing, the crystal form was confirmed to be kept Crystal form D anhydrate or Crystal form D X-hydrate under each conditions by powder X-ray diffraction spectra.

Data set [3] can be described thus: Accelerated testing (stability) of Crystal form D anhydrate and X-hydrate at 40° C. and 60° C. for 1 month, degradants by HPLC. Conditions: for Percent Degradants: X-hydrate at about 75% RH. On the procedure:
Three lots of Crystal form D anhydrate prepared according to the procedure described in Example 2 were stored and dried under reduced pressure in a desiccator containing silica gel. After drying under reduced pressure, the desiccator was charged with air conditioned at a relative humidity of 0% RH to perform accelerated testing of Crystal form D anhydrate at 40° C. for 1 month and at 60° C. for 1 month. Similarly, Crystal form D was stored in a desiccator conditioned at a relative humidity of about 75% RH by an aqueous saturated sodium chloride solution to perform accelerated testing of Crystal form D X-hydrate at 40° C. for 1 month and at 60° C. for 1 month. Before and after accelerated testing, the crystal form was confirmed to be Crystal form D anhydrate or Crystal form D X-hydrate by powder X-ray diffraction spectra.
as §1, §2

Data on 2 compounds can be found in patent publication US20050176938A1, “Anhydrate/hydrate of an erythromycin derivative and processes for preparing said anhydrate/hydrate” (Chugai Seiyaku Kabushiki Kaisha, priority 2002, published 2005).

Where a name gives a salt, the structure may show the parent alone.

Consider `CC[C@H]1OC(=O)[C@H](C)[C@@H](O[C@H]2C[C@@](C)(OC)[C@@H](O)[C@H](C)O2)[C@H](C)[C@@H](O[C@@H]2O[C@H](C)C[C@H](N(C)C(C)C)[C@H]2O)[C@@]2(C)CC(C)=C(O2)[C@H](C)C(=O)[C@]1(C)OC` [Crystal form D X-hydrate, [2S, 4R, 5R, 8R, 9S, 10S, 11R, 12R]-9-[(2,6-dideoxy-3-C-methyl-3-O-methyl-α-L-ribo-hexopyranosyl)oxy]-5-ethyl-4-methoxy-2,4,8,10,12,14-hexamethyl-11-[[3,4,6-trideoxy-3-(isopropylmethylamino)-β-D-xylo-hexopyranosyl]oxy]-6,15-dioxabicyclo[10.2.1]pentadec-14 (1)-ene-3,7-dione (E)-2-butenedioic acid salt (2:1)], for which the Residual solvent level was determined as 636 ppm in data set [1] (Lot A, Air-circulating dryer, 20-21° C., 58-63% RH (air) 2 hrs, listed as X-hydrate); 446 ppm in data set [1] (Lot B, Vibro-fluidized bed dryer, 22-28° C., 75 ± 15% RH (nitrogen gas) 4 hrs, listed as X-hydrate); 424 ppm in data set [1] (Lot C, Fluidized bed granulator, 24-29° C., 75 ± 10% RH (air) 4 hrs, listed as X-hydrate); 424 ppm in data set [1] (Lot D, Vibro-fluidized bed dryer, 19-26° C., 70-71% RH (nitrogen gas) 4 hrs, listed as X-hydrate); 251 ppm in data set [1] (Lot E, Air-circulating dryer, 19-28° C., 41-71% RH (air) 72 hrs, listed as X-hydrate). In data set [1] (all the lots), the “residual solvent level compared between the crystal forms” value is on record as “lower”. In addition, the “Percent Degradants” value in data set [2] (1 month, Lot 1, anhydrate 0% RH, listed as X-hydrate) was 0.66%; in data set [2] (1 month, Lot 2, anhydrate 0% RH, listed as X-hydrate), 0.72%; in data set [2] (1 month, Lot 3, anhydrate 0% RH, listed as X-hydrate), 0.93%; in data set [2] (2 weeks, Lot 1, anhydrate 0% RH, listed as X-hydrate), 0.17%; in data set [2] (2 weeks, Lot 2, anhydrate 0% RH, listed as X-hydrate) it was 0.05%; in data set [2] (2 weeks, Lot 3, anhydrate 0% RH, listed as X-hydrate) it was 0.18%. Further, the “Percent Degradants” value is 0.17% in data set [3] (40° C., Lot 1, anhydrate at 0% RH, listed as X-hydrate); 0.42% in data set [3] (40° C., Lot 2, anhydrate at 0% RH, listed as X-hydrate); 0.22% in data set [3] (40° C., Lot 3, anhydrate at 0% RH, listed as X-hydrate); 0.90% in data set [3] (60° C., Lot 1, anhydrate at 0% RH, listed as X-hydrate); 0.63% in data set [3] (60° C., Lot 2, anhydrate at 0% RH, listed as X-hydrate); 1.53% in data set [3] (60° C., Lot 3, anhydrate at 0% RH, listed as X-hydrate). The “stability compared between the crystal forms” value in data set [2] (oxygen replacement, 2 weeks and 1 month) is recorded as “more stable than Crystal form D anhydrate”; in data set [3] (40° C. and 60° C., all the lots), “more stable than Crystal form D anhydrate”.
As to `CC[C@H]1OC(=O)[C@H](C)[C@@H](O[C@H]2C[C@@](C)(OC)[C@@H](O)[C@H](C)O2)[C@H](C)[C@@H](O[C@@H]2O[C@H](C)C[C@H](N(C)C(C)C)[C@H]2O)[C@@]2(C)CC(C)=C(O2)[C@H](C)C(=O)[C@]1(C)OC` [Crystal form D anhydrate, [2S, 4R, 5R, 8R, 9S, 10S, 11R, 12R]-9-[(2,6-dideoxy-3-C-methyl-3-O-methyl-α-L-ribo-hexopyranosyl)oxy]-5-ethyl-4-methoxy-2,4,8,10,12,14-hexamethyl-11-[[3,4,6-trideoxy-3-(isopropylmethylamino)-β-D-xylo-hexopyranosyl]oxy]-6,15-dioxabicyclo[10.2.1]pentadec-14(1)-ene-3,7-dione (E)-2-butenedioic acid salt (2:1)], the Residual solvent level in data set [1] (Lot A, Air-circulating dryer, 20-21° C., 58-63% RH (air) 2 hrs, listed as Anhydrate) worked out at 697 ppm; in data set [1] (Lot B, Vibro-fluidized bed dryer, 22-28° C., 75 ± 15% RH (nitrogen gas) 4 hrs, listed as Anhydrate) it was 616 ppm; in data set [1] (Lot C, Fluidized bed granulator, 24-29° C., 75 ± 10% RH (air) 4 hrs, listed as Anhydrate), 750 ppm; in data set [1] (Lot D, Vibro-fluidized bed dryer, 19-26° C., 70-71% RH (nitrogen gas) 4 hrs, listed as Anhydrate), 875 ppm; in data set [1] (Lot E, Air-circulating dryer, 19-28° C., 41-71% RH (air) 72 hrs, listed as Anhydrate) it was 663 ppm. Besides, the “Percent Degradants” value in data set [2] (1 month, Lot 1, anhydrate 0% RH, listed as Anhydrate) is 3.12%; in data set [2] (1 month, Lot 2, anhydrate 0% RH, listed as Anhydrate), 3.39%; in data set [2] (1 month, Lot 3, anhydrate 0% RH, listed as Anhydrate), 3.96%; in data set [2] (2 weeks, Lot 1, anhydrate 0% RH, listed as Anhydrate), 1.01%; in data set [2] (2 weeks, Lot 2, anhydrate 0% RH, listed as Anhydrate), 1.00%; in data set [2] (2 weeks, Lot 3, anhydrate 0% RH, listed as Anhydrate), 1.32%. The “Percent Degradants” value is listed as 1.01% in data set [3] (40° C., Lot 1, anhydrate at 0% RH, listed as Anhydrate); 1.38% in data set [3] (40° C., Lot 2, anhydrate at 0% RH, listed as Anhydrate); 1.41% in data set [3] (40° C., Lot 3, anhydrate at 0% RH, listed as Anhydrate); 2.66% in data set [3] (60° C., Lot 1, anhydrate at 0% RH, listed as Anhydrate); 2.52% in data set [3] (60° C., Lot 2, anhydrate at 0% RH, listed as Anhydrate); 3.05% in data set [3] (60° C., Lot 3, anhydrate at 0% RH, listed as Anhydrate).
